This note sets out measurements from publication PMC6663879, “Biochemical and structural investigations clarify the substrate selectivity of the 2-oxoglutarate oxygenase JMJD6” (The Journal of Biological Chemistry, 2019).

The target in this assay is JMJD6^Δ363–403 (Homo sapiens, UniProt Q6NYC1). The assay is described as follows: Standard MS-based hydroxylation assay (MALDI-TOF MS) of substrate peptides. The conditions noted are these: for Hydroxylation: 10 μM JMJD6^Δ363–403, 100 μM peptide, 100 μM Fe(II), 400 μM ascorbate, 500 μM 2OG, 50 mM HEPES-KOH pH 8.0, 37 °C, 30 min, MALDI-TOF MS; for Hydroxylation / kcat / Km: mean ± S.D. (n = 3); for kcat/Km^app / kcat / Km: standard hydroxylation assay conditions, substrate peptide varied 0–400 μM; for Km: read-out: Km^app; for JMJD6-catalyzed hydroxylation (+16-Da mass shift), result in words: JMJD6^Δ363–403, standard assay conditions, MALDI-TOF MS / LC-MS/MS. The class given is biochemical. More on the design: two more variants (aa 1–362, JMJD6^Δ363–403, and aa 1–343, JMJD6^Δ344–403); His6 (N); made in house; host or cells: Escherichia coli Rosetta2(DE3).

Where [1] appears, read: JMJD6^Δ363–403, MALDI-TOF MS, inhibitor concentration not given.

Where “and” joins values, the source holds several entries; their conditions need not be identical. Equal values may be shown once.

`O=C(O)c1ccnc(C(=O)O)c1` [2,4-PDCA, 2,4-pyridine dicarboxylic acid, reference compound]: under setting [1], the “Hydroxylation of ERα 251–262 peptide by JMJD6 on addition of the inhibitor” value is reported as “Hydroxylation was ablated” and the “Hydroxylation of WT pVHL166–177 by JMJD6 in the presence of the inhibitor” value is “did not manifest hydroxylation”.
For the compound “DRKSYKHRSKSRDR [CROP357–370, fragment of SR protein CROP/LUC7L3]”, the Hydroxylation came to 88.7 ± 4.9%, the “kcat/Km^app” value was 42 M⁻¹ s⁻¹, the kcat is listed as 39.0 ± 3.6 × 10^−4 s^−1 and the Km (usually the substrate concentration at which the rate is half of its maximum) amounted to 93 ± 20 µM.
“ENRHRKRSHSRSRSR [U2AF65_21–35, fragment of the RS region of U2AF65]”: the Hydroxylation is on record as 74.7 ± 4.1%, the “kcat/Km^app” value stood at 68 M⁻¹ s⁻¹, the kcat was 40.0 ± 2.2 × 10^−4 s^−1 and the Km worked out at 59 ± 8.6 µM.
In the case of “ERGRRSRSTSKT [SRSF11_299–310, fragment of SRSF11]”, the Hydroxylation came to 6.40 ± 0.90%.
In the case of “ERα251–262K252A: ERα 251–262 peptide with alanine substitution K252A (MAGGIRKDRRGG; UniProt P03372 251-262, looked up, fragment K252A)”, the “JMJD6-catalyzed hydroxylation (+16-Da mass shift), result in words” value is “Hydroxylation was ablated”.
On to “ERα251–262K257A: ERα 251–262 peptide with alanine substitution K257A (MKGGIRADRRGG; UniProt P03372 251-262, looked up, fragment K257A)”, for which the “JMJD6-catalyzed hydroxylation (+16-Da mass shift), result in words” value is “Hydroxylation was ablated”.
Still for that read-out and setting: then “H3_1–25: histone 3 peptide with unmodified arginine residues”, with “hydroxylation of lysine residues was also observed”; and “H4_1–30: histone 4 peptide with unmodified arginine residues”, with “hydroxylation of lysine residues was also observed”.
The compound “KRHSRSRSRS [Acinus S′95–604, fragment of Acinus S′]” returned a Hydroxylation of 12.5 ± 3.0%.
On the same count and under the same terms, the value for “KSKERKRSRDRE [RBM39_51–62, fragment of RBM39]” was 37.0 ± 7.6%.
In the case of “NPKRSRSREHRR [LUC7L2_267–278, reported JMJD6 substrate, fragment of SR protein LUC7L2, reference compound]”, the Hydroxylation is on record as 98.5 ± 4.8%; the “kcat/Km^app” value is 208 M⁻¹ s⁻¹; the kcat was 106 × 10^−4 s^−1 and 106 ± 4.0 × 10^−4 s^−1; the Km amounted to 51 ± 4.6 µM.
In the case of “PRSRSRSRDRRRKE [Acinus S′447–460, fragment of Acinus S′]”, the Hydroxylation turned out to be 25.6 ± 2.8%.
Regarding “RDRRRRSKPLTRGAK [U2AF65_55–70, fragment of U2AF65]”, the Hydroxylation was determined as 61.0 ± 6.4%, the “kcat/Km^app” value worked out at 34 M⁻¹ s⁻¹, the kcat is 43.0 ± 5.2 × 10^−4 s^−1 and the Km amounted to 124 ± 34 µM.
With “RKHRSRSRDRRRSKS [CROP341–355, fragment of SR protein CROP/LUC7L3]”, the Hydroxylation was 92.7 ± 6.9%, the “kcat/Km^app” value came out at 217 M⁻¹ s⁻¹, the kcat is on record as 165 ± 12 × 10^−4 s^−1 and the Km amounted to 76 ± 13 µM.
For “RKRSRSKERRRS [RBM39_71–82, fragment of RBM39]”, the Hydroxylation is on record as 87.6 ± 7.0%, the “kcat/Km^app” value amounted to 322 M⁻¹ s⁻¹, the kcat is listed as 284 ± 11 × 10^−4 s^−1 and the Km amounted to 88 ± 8.7 µM.
As to RSKKRKKSKSRS [RBM39_31–42], the Hydroxylation is 99.0 ± 0.70%, the “kcat/Km^app” value stood at 455 M⁻¹ s⁻¹, the kcat is on record as 255 ± 15 × 10^−4 s^−1 and the Km was determined as 56 ± 9.6 µM.
On to “RSKSPRRRRSHSR [SRSF11_286–298, fragment of SRSF11]”, for which the Hydroxylation stood at 90.5 ± 5.0%, the “kcat/Km^app” value is 195 M⁻¹ s⁻¹, the kcat is 80.0 ± 3.9 × 10^−4 s^−1 and the Km amounted to 41 ± 6.6 µM.
For the compound “RSPKRKLSRSPSPR [SRSF11_358–372, fragment of SRSF11]”, the Hydroxylation is 44.1 ± 3.9%, the “kcat/Km^app” value turned out to be 229 M⁻¹ s⁻¹, the kcat is 174 ± 19 × 10^−4 s^−1 and the Km turned out to be 76 ± 21 µM.
For “RSRSGTRSPKKPSR [SRSF11_347–360, fragment of SRSF11]”, the Hydroxylation is given as 97.0 ± 2.2%, the “kcat/Km^app” value was found to be 159 M⁻¹ s⁻¹, the kcat was 146 ± 9.6 × 10^−4 s^−1 and the Km is 92 ± 14 µM.
As to “SKSRSRSHERKRS [RBM39_38–50, fragment of RBM39]”, the Hydroxylation worked out at 79.0 ± 8.9%, the “kcat/Km^app” value was 395 M⁻¹ s⁻¹, the kcat is 281 ± 15 × 10^−4 s^−1 and the Km is 71 ± 9.9 µM.
The corresponding values for “SRDHKRSRSRERRRS [CROP311–325, fragment of SR protein CROP/LUC7L3]” are 89.3 ± 1.9%, 269 M⁻¹ s⁻¹, 191 ± 6.6 × 10^−4 s^−1 and 71 ± 7.2 µM.
Consider “SRERRKLSRSRSR [LUC7L1_287–298, fragment of LUC7L1]”, for which the Hydroxylation stood at 18.3 ± 3.1%.
With “SRRRSRSKSPFR [RBM39_121–132, fragment of RBM39]”, the Hydroxylation is on record as 82.5 ± 5.6%, the “kcat/Km^app” value is 303 M⁻¹ s⁻¹, the kcat is reported as 300 ± 23 × 10^−4 s^−1 and the Km was 99 ± 19 µM.
For the compound “SRSRRRSHSKSR [SRSF11_271–282, fragment of SRSF11]”, the Hydroxylation is recorded as 33.6 ± 1.8%.
Consider “SRSRSRDRKRRSRSRDR [U2AF65_30–46, fragment of the RS region of U2AF65]”, for which the Hydroxylation was 72.4 ± 6.5%, the “kcat/Km^app” value is 118 M⁻¹ s⁻¹, the kcat is listed as 92.0 ± 7.0 × 10^−4 s^−1 and the Km came to 78 ± 15 µM.
Take “pVHL166–177: lysine-containing pVHL sequence (VRSLVKPENYRR; UniProt P40337 166-177, looked up, fragment)”: the “JMJD6-catalyzed hydroxylation (+16-Da mass shift), result in words” value is reported as “presence of a +16-Da mass shift”.
For “pVHL166–177K171A: alanine variant of pVHL166–177 (VRSLVAPENYRR; UniProt P40337 166-177, looked up, fragment K171A)”, the “JMJD6-catalyzed hydroxylation (+16-Da mass shift), result in words” value is on record as “did not manifest hydroxylation”.
